Activity calls are given as the source filed them.
Tests used:
Insulin-degrading enzyme [1] = biological target: T1, Insulin-degrading enzyme (Homo sapiens, UniProt P14735); assay: recombinant IDE activation, cell-free – biochemical, fluorescence polarization, counter-screen for IDE activator project, dose response (AID 588681)
T1 sequence (P14735 whole entry): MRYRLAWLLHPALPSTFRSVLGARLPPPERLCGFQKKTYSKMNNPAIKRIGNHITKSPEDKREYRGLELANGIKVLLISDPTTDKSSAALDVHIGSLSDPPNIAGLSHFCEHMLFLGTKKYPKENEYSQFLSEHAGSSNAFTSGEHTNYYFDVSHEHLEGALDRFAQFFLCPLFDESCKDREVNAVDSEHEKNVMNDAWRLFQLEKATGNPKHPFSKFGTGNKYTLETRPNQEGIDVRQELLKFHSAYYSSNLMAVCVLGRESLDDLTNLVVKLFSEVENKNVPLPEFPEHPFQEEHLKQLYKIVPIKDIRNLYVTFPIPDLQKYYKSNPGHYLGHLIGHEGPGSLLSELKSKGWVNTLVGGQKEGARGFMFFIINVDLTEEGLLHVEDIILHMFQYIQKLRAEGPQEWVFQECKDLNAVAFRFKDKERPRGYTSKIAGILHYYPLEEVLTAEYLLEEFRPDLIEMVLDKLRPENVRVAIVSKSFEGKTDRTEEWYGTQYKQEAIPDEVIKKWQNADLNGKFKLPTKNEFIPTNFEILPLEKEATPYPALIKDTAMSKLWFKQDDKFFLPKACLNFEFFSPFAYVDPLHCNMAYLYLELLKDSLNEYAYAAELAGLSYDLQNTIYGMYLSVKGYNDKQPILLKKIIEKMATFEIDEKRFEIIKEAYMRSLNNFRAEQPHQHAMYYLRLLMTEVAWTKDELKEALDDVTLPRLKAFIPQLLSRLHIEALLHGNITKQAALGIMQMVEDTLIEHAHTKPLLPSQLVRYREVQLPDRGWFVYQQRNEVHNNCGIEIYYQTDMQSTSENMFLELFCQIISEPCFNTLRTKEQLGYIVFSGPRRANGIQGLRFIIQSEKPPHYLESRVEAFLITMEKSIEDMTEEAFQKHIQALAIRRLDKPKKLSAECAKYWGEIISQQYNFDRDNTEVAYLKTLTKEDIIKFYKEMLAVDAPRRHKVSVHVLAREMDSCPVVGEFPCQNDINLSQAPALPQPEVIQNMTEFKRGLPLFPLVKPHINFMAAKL

HEK293 [2] = assay: optical interference in Abeta FP readout, dose response, artefact control for IDE activator project, biochemical, fluorescence polarization (AID 588442); assay type: functional, cell-based; conditions: Homo sapiens
INS1 = assay: INS-1E survival protection against cytokine death – cell-based, luminescence, retest, dose response (AID 449756); assay type: functional; conditions: Rattus norvegicus;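 also: cell death triggered by IL-1 beta plus TNF-alpha plus IFN-gamma mixture; protective hits raise ATP signal compared with cytokine alone wells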
HEK293 [3] = assay: membrane integrity loss in HEK cells – cell-based, fluorescence, cytotoxicity control for IDE activator project, dose response (AID 588440); assay type: functional; conditions: Homo sapiens;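 also: cytotoxicity by LDH release measuring loss of membrane integrity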
[4] = biological target: T2, Ubiquitin-conjugating enzyme E2 N (Homo sapiens, UniProt P61088); assay type: functional;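 also: Dose-response confirmation in a TR-FRET assay detecting UBC13-driven polyubiquitin chain formation, inhibition measured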
T2 sequence (P61088 whole entry): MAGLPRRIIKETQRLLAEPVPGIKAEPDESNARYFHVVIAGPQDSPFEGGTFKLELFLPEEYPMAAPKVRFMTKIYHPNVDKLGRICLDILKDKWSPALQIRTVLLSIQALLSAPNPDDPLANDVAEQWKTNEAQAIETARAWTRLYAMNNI

Insulin-degrading enzyme [5] = biological target: T1, Insulin-degrading enzyme; assay: cellular IDE activation of Abeta substrate cleavage – fluorescence polarization, HEK cells, dose response (AID 588439); assay type: functional, cell-based
[6] = biological target: T3, Methionyl-tRNA synthetase, putative (Trypanosoma brucei brucei, UniProt Q38C91); assay type: functional, Trypanosoma brucei brucei strain 927/4 GUTat10.1
T3 sequence (Q38C91 whole entry): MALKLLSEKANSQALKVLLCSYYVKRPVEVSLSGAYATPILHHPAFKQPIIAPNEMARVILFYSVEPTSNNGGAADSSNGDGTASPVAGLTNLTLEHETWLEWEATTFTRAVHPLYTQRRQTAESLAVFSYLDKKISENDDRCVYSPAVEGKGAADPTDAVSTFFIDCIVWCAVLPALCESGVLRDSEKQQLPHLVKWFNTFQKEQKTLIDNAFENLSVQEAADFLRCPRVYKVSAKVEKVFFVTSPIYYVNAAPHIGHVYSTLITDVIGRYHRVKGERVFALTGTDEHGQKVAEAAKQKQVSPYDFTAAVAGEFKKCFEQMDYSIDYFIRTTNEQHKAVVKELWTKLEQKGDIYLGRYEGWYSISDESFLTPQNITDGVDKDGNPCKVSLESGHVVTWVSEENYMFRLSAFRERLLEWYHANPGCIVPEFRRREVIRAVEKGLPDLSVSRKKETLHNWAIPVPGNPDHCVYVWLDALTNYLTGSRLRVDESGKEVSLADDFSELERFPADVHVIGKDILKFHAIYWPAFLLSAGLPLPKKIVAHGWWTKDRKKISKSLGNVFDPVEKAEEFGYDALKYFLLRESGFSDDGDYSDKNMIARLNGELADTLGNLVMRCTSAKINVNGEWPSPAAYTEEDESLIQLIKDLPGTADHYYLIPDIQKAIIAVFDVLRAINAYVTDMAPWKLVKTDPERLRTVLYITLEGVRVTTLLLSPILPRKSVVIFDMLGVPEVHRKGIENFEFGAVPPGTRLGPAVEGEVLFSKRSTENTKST

[7] = biological target: T3, Methionyl-tRNA synthetase, putative; assay type: functional, Trypanosoma brucei brucei strain 927/4 GUTat10.1; remark: listed apart in the source
cells = assay type: functional
[8] = Counterscreen for inhibitors of Trypanosoma brucei methionyl tRNA synthetase (MetRS): Luminescence-based cell-based high throughput dose response assay to identify compounds that are cytotoxic to Jurkat human T lymphocyte cells.; assay type: functional
Vero = assay: viability loss in Vero cells – cell-based, plate reader, cherry-pick samples, cytotoxicity control, dose response (AID 687020); assay type: functional; conditions: Chlorocebus sabaeus
[9] = tested on: Streptococcus sp. 'group A'; assay: Streptococcus pyogenes SK(-)GAS viability under kanamycin – luminescence, BacTiterGlo, confirmation, counter-screen for streptokinase expression inhibitor project, dose response (AID 1900); assay type: functional, organism-based
Streptokinase A = biological target: T4, Streptokinase A (Streptococcus pyogenes serotype M1, UniProt P10520); assay: viability-normalized secreted streptokinase activity reduction – plasminogen activation absorbance, OD405, dose response (AID 1914); assay type: functional, Streptococcus pyogenes M1 GAS;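 also: secreted streptokinase activity via plasminogen activation per viability signal from cell pellet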
T4 sequence (P10520 whole entry): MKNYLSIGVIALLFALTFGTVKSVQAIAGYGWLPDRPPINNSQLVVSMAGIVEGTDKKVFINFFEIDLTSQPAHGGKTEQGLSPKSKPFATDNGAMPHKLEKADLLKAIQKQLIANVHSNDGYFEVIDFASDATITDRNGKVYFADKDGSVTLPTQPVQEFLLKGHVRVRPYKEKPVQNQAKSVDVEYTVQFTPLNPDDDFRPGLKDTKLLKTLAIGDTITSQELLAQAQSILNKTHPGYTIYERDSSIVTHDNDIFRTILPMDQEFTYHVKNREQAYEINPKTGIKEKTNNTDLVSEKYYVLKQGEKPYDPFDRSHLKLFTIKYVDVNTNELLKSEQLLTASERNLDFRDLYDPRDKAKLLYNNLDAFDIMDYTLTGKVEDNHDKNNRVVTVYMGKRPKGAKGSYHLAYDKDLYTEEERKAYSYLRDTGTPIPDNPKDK

Streptococcus = assay: GAS UMAA2166 growth inhibition – luminescence, BacTiterGlo, counter-screen for streptokinase expression inhibitor project, dose response (AID 1915); assay type: functional, organism-based;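 also: potency for reduction of bacterial viability or growth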
[10] = biological target: T5, Histone-lysine N-methyltransferase NSD2 (Homo sapiens, UniProt O96028); assay type: biochemical
T5 sequence (O96028 whole entry): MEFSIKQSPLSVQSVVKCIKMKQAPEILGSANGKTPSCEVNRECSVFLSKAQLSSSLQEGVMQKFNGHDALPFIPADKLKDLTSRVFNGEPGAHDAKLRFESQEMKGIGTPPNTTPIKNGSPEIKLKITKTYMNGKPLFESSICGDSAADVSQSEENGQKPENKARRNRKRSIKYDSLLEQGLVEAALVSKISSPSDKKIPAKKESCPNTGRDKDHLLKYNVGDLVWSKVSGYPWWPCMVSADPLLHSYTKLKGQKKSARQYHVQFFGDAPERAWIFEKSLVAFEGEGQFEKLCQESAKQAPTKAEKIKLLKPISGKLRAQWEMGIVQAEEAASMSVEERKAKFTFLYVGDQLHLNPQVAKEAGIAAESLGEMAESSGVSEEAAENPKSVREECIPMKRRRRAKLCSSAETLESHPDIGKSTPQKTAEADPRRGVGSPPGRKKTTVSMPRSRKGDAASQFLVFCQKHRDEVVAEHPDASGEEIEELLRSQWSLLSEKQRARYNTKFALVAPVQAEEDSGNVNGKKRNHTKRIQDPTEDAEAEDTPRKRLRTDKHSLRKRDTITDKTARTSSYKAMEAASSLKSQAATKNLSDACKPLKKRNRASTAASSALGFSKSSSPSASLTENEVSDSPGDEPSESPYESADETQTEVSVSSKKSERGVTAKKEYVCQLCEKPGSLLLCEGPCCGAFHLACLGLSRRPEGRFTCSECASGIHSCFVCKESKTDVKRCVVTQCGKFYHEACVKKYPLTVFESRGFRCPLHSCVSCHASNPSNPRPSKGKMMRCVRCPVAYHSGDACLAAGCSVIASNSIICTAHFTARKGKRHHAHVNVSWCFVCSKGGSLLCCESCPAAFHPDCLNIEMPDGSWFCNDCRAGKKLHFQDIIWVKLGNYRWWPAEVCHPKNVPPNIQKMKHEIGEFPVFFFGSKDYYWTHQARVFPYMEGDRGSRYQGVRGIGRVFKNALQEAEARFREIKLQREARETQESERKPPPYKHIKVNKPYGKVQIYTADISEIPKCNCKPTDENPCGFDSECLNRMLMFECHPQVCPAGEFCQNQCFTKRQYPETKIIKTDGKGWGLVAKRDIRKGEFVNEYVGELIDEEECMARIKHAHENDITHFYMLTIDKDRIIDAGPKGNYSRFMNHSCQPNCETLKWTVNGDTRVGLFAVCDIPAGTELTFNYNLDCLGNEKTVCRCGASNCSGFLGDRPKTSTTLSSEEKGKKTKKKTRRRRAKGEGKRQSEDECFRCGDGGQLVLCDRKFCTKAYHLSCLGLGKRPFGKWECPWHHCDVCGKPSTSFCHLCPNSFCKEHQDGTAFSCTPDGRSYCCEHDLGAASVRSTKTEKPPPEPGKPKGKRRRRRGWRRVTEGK

[11] = biological target: T6, DNA repair and recombination protein RAD54-like (Homo sapiens, UniProt Q92698); assay: RAD54 Holliday junction migration blockers – biochemical, fluorescence, cherry-picked samples, dose series, confirmation (AID 651657); assay type: functional
T6 sequence (Q92698 whole entry): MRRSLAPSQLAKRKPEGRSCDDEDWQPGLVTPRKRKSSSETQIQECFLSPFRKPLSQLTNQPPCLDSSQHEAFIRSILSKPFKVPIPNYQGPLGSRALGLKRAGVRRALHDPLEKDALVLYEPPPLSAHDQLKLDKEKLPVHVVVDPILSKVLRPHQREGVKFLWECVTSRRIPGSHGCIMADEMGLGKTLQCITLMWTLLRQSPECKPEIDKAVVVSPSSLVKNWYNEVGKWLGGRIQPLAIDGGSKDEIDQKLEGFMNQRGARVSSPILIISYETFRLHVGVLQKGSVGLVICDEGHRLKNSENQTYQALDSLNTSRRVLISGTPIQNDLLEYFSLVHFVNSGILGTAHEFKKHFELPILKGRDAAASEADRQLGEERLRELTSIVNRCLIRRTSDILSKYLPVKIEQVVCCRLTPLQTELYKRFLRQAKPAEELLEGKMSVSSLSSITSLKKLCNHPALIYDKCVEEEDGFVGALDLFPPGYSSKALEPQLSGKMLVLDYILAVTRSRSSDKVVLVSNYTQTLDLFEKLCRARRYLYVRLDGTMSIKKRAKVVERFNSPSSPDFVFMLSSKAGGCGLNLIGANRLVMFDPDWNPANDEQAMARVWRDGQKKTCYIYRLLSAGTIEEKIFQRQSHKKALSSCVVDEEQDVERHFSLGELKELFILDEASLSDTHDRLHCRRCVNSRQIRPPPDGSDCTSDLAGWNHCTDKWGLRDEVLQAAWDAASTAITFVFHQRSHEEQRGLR

SMILES | EC50 (Insulin-degrading enzyme [1]) | EC50 (HEK293 [2]) | IC50 (HEK293 [3]) | EC50 (Insulin-degrading enzyme [5]) | IC50 [6] | IC50 [7] | IC50 [8] | further results
COC(=O)C1=C(C)N(Cc2ccccc2)C(NCc2cccc(C(F)(F)F)c2)=N[C@H]1c1cccc(C(F)(F)F)c1 | > 54.7 µM (inactive) | > 54.7 µM (inactive) | 13.6 µM (inactive) | > 6.08 µM (active) |  |  |  | AC50 (INS1): 5.53 µM (active); IC50 [4]: > 20 µM (inactive)
N/N=C(/Cc1nc2ccccc2[nH]1)c1ccc([N+](=O)[O-])cc1 |  |  |  |  | 3.17 µM (active) | 6.69 µM (active) | 83.3 µM (inactive) | IC50 (cells): 19 µM (active)
NC(=O)c1cc(Cl)cn(-c2ccccc2)c1=O |  |  |  |  |  |  |  | AC50 (Vero): 33.7 µM (active)
NC(=O)c1ccc(NC(=O)COC(=O)c2c3c(nc4ccccc24)/C(=C\c2ccc4c(c2)OCO4)CCC3)cc1 | > 54.7 µM (inactive) | > 54.7 µM (inactive) | > 89.2 µM (inactive) | > 54.7 µM (inactive) |  |  |  | EC50 [9]: 13.6 µM (active); EC50 (Streptokinase A): > 150 µM (not active); EC50 (Streptococcus): 140 µM (active)
O=C(COC(=O)CCCOc1ccc(Cl)cc1Cl)Nc1cccc(Cl)c1 |  |  |  |  | 16.5 µM (inactive) | 9.07 µM (active) | 83.3 µM (inactive) | 
O=C(c1ccccc1)N1CCN(c2ccc([N+](=O)[O-])c(NCc3cccnc3)c2)CC1 | > 54.7 µM (inactive) | > 54.7 µM (inactive) | > 89.2 µM (inactive) | > 54.7 µM (inactive) |  |  |  | 
CCc1cc(Cn2nc(C(=O)O)cc2-c2ccccc2)on1 | > 54.7 µM (inactive) | > 54.7 µM (inactive) | > 89.3 µM (inactive) | > 54.7 µM (inactive) |  |  |  | 
Nc1ccc(C2(c3ccc(N)cc3)CN3CCC2CC3)cc1 |  |  |  |  |  |  |  | AC50 [10]: 4.41 µM (active); AC50 [11]: 25.8 µM (active)
O=C(Nc1ccccc1)Nc1nnc(COc2ccccc2F)s1 |  |  |  |  | 35.7 µM (inactive) | 42.9 µM (inactive) | 71 µM (inactive) | 
